Assay results: the supplement of paper PMC10307832

Experiments:
Assay in all cases: relative viability (nuclei count vs DMSO), 5 days (fraction); higher = more cells survive
[1] = compound: NCC(=O)Nc1ccc(-n2nc(C(F)(F)F)cc2-c2ccc3c(ccc4ccccc43)c2)cc1 + CC(C)C[C@H](NC(=O)[C@H](Cc1ccccc1)NC(=O)c1cnccn1)B(O)O [Bortezomib] (partner 0.002 µM)
Outline: (§1)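 Each reported value is a median over duplicate plates. It expresses relative viability: treated-well nuclei count divided by vehicle-well nuclei count. Lung cancer cell lines in 1536-well plates were dosed by pin tool a day after seeding, alone with one drug or with a fixed anchor-drug dose plus five library-drug doses (not always all listed) in √10 steps, and nuclei were counted after 5 days.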

[2] = compound: NCC(=O)Nc1ccc(-n2nc(C(F)(F)F)cc2-c2ccc3c(ccc4ccccc43)c2)cc1 + Nc1nc2[nH]cc(CCc3ccc(C(=O)N[C@@H](CCC(=O)O)C(=O)O)cc3)c2c(=O)[nH]1 [Pemetrexed] (partner 0.2 µM)
Outline: as §1

[3] = compound: C1CSC2=C(C(=O)N1)SC3=C2C=C(C=C3)O [kb NB 142-70] + CCNC(=O)c1noc(-c2cc(C(C)C)c(O)cc2O)c1-c1ccc(CN2CCOCC2)cc1 [Luminespib] (partner 0.01 µM)
Outline: as §1

[4] = compound: C1CSC2=C(C(=O)N1)SC3=C2C=C(C=C3)O [kb NB 142-70] + C[C@@H](Oc1cc(-c2cnn(C3CCNCC3)c2)cnc1N)c1c(Cl)ccc(F)c1Cl [Crizotinib] (partner 1 µM)
Outline: as §1

UMC-11
relative viability ([1]; first compound 0.02 µM): 0.831
relative viability ([1]; first compound 0.06325 µM): 0.762
relative viability ([1]; first compound 0.2 µM): 0.693
relative viability ([1]; first compound 0.6325 µM): 0.658
relative viability ([1]; first compound 2 µM): 0.674
relative viability ([2]; first compound 0.02 µM): 0.835
relative viability ([2]; first compound 0.06325 µM): 0.699
relative viability ([2]; first compound 0.2 µM): 0.905
relative viability ([2]; first compound 0.6325 µM): 0.853
relative viability ([2]; first compound 2 µM): 0.759
relative viability ([3]; first compound 0.1 µM): 1.02
relative viability ([3]; first compound 1 µM): 0.908
relative viability ([3]; first compound 3.162 µM): 0.494
relative viability ([4]; first compound 0.1 µM): 0.698
relative viability ([4]; first compound 1 µM): 0.601
relative viability ([4]; first compound 3.162 µM): 0.277
